Test results: patent US6274715A, “Tricyclic erythromycin derivatives” (priority 1997, dated 2001)
Values after ≈ are worked out from the molar mass of the structure shown.

What was measured:
Format in all cases: cell-based
[1] = system: STAPHYLOCOCCUS AUREUS ATCC 6538P; experiment: In vitro antibacterial activity, MIC, BHI agar dilution; details: S. aureus ATCC 6538P, 35-37° C., 20 to 24 hours, unit assumed
[2] = system: STAPHYLOCOCCUS AUREUS A5177; experiment: as above; details: S. aureus A5177, unit assumed
[3] = system: STAPHYLOCOCCUS AUREUS A-5278; experiment: as above; details: S. aureus A-5278, unit assumed
[4] = system: STAPHYLOCOCCUS AUREUS CMX 642A; experiment: as above; details: S. aureus CMX 642A, unit assumed
[5] = system: STAPHYLOCOCCUS AUREUS NCTC10649M; experiment: as above; details: S. aureus NCTC10649M, unit assumed
[6] = system: STAPHYLOCOCCUS AUREUS CMX 553; experiment: as above; details: S. aureus CMX 553, unit assumed
[7] = system: STAPHYLOCOCCUS AUREUS 1775; experiment: as above; details: S. aureus 1775, unit assumed
[8] = system: STAPHYLOCOCCUS EPIDERMIDIS 3519; details: S. epidermidis 3519; BHI agar; unit assumed
EN[…] ATCC 8043 = experiment: In vitro antibacterial activity, MIC, BHI agar dilution; details: E. faecium ATCC 8043, unit assumed
Method: (§1) Representative compounds of the present invention were assayed in vitro for antibacterial activity as follows: Twelve petri dishes containing successive aqueous dilutions of the test compound mixed with 10 mL of sterilized Brain Heart Infusion (BHI) agar (Difco 0418-01-5) were prepared. Each plate was inoculated with 1:100 (or 1:10 for slow-growing strains, such as Micrococcus and Streptococcus) dilutions of up to 32 different microorganisms, using a Steers replicator block. The inoculated plates were incubated at 35-37° C. for 20 to 24 hours. In addition, a control plate, using BHI agar containing no test compound, was prepared and incubated at the beginning and end of each test.
(§2) An additional plate containing a compound having known susceptibility patterns for the organisms being tested and belonging to the same antibiotic class as the test compound was also prepared and incubated as a further control, as well as to provide test-to-test comparability. Erythromycin A was used for this purpose.
(§3) After incubation, each plate was visually inspected. The minimum inhibitory concentration (MIC) was defmed as the lowest concentration of drug yielding no growth, a slight haze, or sparsely isolated colonies on the inoculum spot as compared to the growth control.

M[…] ATCC 4698 = experiment: as above; details: M. luteus ATCC 4698, unit assumed
Method: as §1, §2, §3

M[…] ATCC 9341 = experiment: as above; details: M. luteus ATCC 9341, unit assumed
Method: as §1, §2, §3

STR[…] 508 = experiment: as above; details: S. agalactiae CMX 508, unit assumed
Method: as §1, §2, §3

[9] = system: STREPTOCOCCUS BOVIS A-5169; experiment: as above; details: S. bovis A-5169, unit assumed
[10] = system: STREPTOCOCCUS PYOGENES EES61; experiment: as above; details: S. pyogenes EES61, unit assumed
[11] = system: STREPTOCOCCUS PYOGENES 930; experiment: as above; details: S. pyogenes 930, unit assumed
ESCHERICHIA COLI JUHL = details: E. coli JUHL; BHI agar; unit assumed
ESCHERICHIA COLI DC-2 = experiment: In vitro antibacterial activity, MIC, BHI agar dilution; details: E. coli DC-2, unit assumed
ESCHERICHIA COLI H560 = experiment: as above; details: E. coli H560, unit assumed
ESCHERICHIA COLI KNK 437 = details: E. coli KNK 437; BHI agar; unit assumed
[12] = system: ENTEROBACTER AEROGENES ATCC 13048; experiment: In vitro antibacterial activity, MIC, BHI agar dilution; details: E. aerogenes ATCC 13048, unit assumed
[13] = system: KLEBSIELLA PNEUMONIAE ATCC 8045; experiment: as above; details: K. pneumoniae ATCC 8045, unit assumed
[14] = system: PROVIDENCIA STUARTII CMX 640; details: P. stuartii CMX 640; BHI agar; unit assumed
[15] = system: PSEUDOMONAS AERUGINOSA BMH10; experiment: In vitro antibacterial activity, MIC, BHI agar dilution; details: P. aeruginosa BMH10, unit assumed
[16] = system: PSEUDOMONAS AERUGINOSA 5007; experiment: as above; details: P. aeruginosa 5007, unit assumed
[17] = system: PSEUDOMONAS AERUGINOSA K799/WT; experiment: as above; details: P. aeruginosa K799/WT, unit assumed
[18] = system: PSEUDOMONAS AERUGINOSA K799/61; experiment: as above; details: P. aeruginosa K799/61, unit assumed
PSEUDOMONAS CEPACIA 296I = experiment: as above; details: P. cepacia 296I, unit assumed
[19] = system: PSEUDOMONAS AERUGINOSA DPHD-5263; experiment: as above; details: P. aeruginosa DPHD-5263, unit assumed
[20] = system: PSEUDOMONAS AERUGINOSA DPHD-2862; experiment: as above; details: P. aeruginosa DPHD-2862, unit assumed
CANDIDA ALBICANS CCH 442 = experiment: as above; details: C. albicans CCH 442, unit assumed
[21] = system: MYCOBACTERIUM SMEGMATIS ATCC 114; experiment: as above; details: M. smegmatis ATCC 114, unit assumed
ESCHERICHIA COLI SS = experiment: as above; details: E. coli SS, unit assumed

CC[C@H]1OC(=O)[C@H](C)C(=O)[C@H](C)[C@@H](O[C@@H]2O[C@H](C)C[C@H](N(C)C)[C@H]2O)[C@](C)(OC)C[C@@H](C)C2=N[C@H](Cc3ccccc3)CN3C(=O)O[C@@]1(C)[C@H]3[C@H]2C [Example 3]
MIC [1]: 0.39 µg/mL (≈ 0.536 µM) | MIC [2]: 0.39 µg/mL (≈ 0.536 µM) | MIC [3]: > 100 µg/mL | MIC [4]: 0.39 µg/mL (≈ 0.536 µM) | MIC [5]: 0.39 µg/mL (≈ 0.536 µM) | MIC [6]: 0.39 µg/mL (≈ 0.536 µM) | MIC [7]: > 100 µg/mL | MIC [8]: 0.39 µg/mL (≈ 0.536 µM) | MIC (EN[…] ATCC 8043): 0.05 µg/mL (≈ 0.0687 µM) | MIC (M[…] ATCC 4698): 0.39 µg/mL (≈ 0.536 µM) | MIC (M[…] ATCC 9341): 0.1 µg/mL (≈ 0.137 µM) | MIC (STR[…] 508): 0.01 µg/mL (≈ 0.0137 µM) | MIC [9]: 0.02 µg/mL (≈ 0.0275 µM) | MIC [10]: 0.01 µg/mL (≈ 0.0137 µM) | MIC [11]: 100 µg/mL (≈ 137 µM) | MIC (ESCHERICHIA COLI JUHL): > 100 µg/mL | MIC (ESCHERICHIA COLI DC-2): > 100 µg/mL | MIC (ESCHERICHIA COLI H560): > 100 µg/mL | MIC (ESCHERICHIA COLI KNK 437): > 100 µg/mL | MIC [12]: > 100 µg/mL | MIC [13]: > 100 µg/mL | MIC [14]: > 100 µg/mL | MIC [15]: > 100 µg/mL | MIC [16]: > 100 µg/mL | MIC [17]: > 100 µg/mL | MIC [18]: 3.1 µg/mL (≈ 4.26 µM) | MIC (PSEUDOMONAS CEPACIA 296I): > 100 µg/mL | MIC [19]: > 100 µg/mL | MIC [20]: > 100 µg/mL | MIC (CANDIDA ALBICANS CCH 442): > 100 µg/mL | MIC [21]: > 100 µg/mL

CC[C@H]1OC(=O)[C@H](C)C(=O)[C@H](C)[C@@H](O[C@@H]2O[C@H](C)C[C@H](N(C)C)[C@H]2O)[C@](C)(OC)C[C@@H](C)C2=N[C@H](COCc3ccncc3)CN3C(=O)O[C@@]1(C)[C@H]3[C@H]2C [Example 77]
MIC [1]: 0.39 µg/mL (≈ 0.514 µM) | MIC [2]: 0.2 µg/mL (≈ 0.264 µM) | MIC [3]: > 100 µg/mL | MIC [4]: 0.39 µg/mL (≈ 0.514 µM) | MIC [5]: 0.39 µg/mL (≈ 0.514 µM) | MIC [6]: 0.39 µg/mL (≈ 0.514 µM) | MIC [7]: > 100 µg/mL | MIC [8]: 0.39 µg/mL (≈ 0.514 µM) | MIC (EN[…] ATCC 8043): 0.05 µg/mL (≈ 0.0659 µM) | MIC (M[…] ATCC 4698): 0.39 µg/mL (≈ 0.514 µM) | MIC (M[…] ATCC 9341): 0.05 µg/mL (≈ 0.0659 µM) | MIC (STR[…] 508): 0.01 µg/mL (≈ 0.0132 µM) | MIC [9]: ≤ 0.005 µg/mL | MIC [10]: < 0.005 µg/mL | MIC [11]: > 100 µg/mL | MIC (ESCHERICHIA COLI JUHL): > 100 µg/mL | MIC (ESCHERICHIA COLI SS): 0.39 µg/mL (≈ 0.514 µM) | MIC (ESCHERICHIA COLI DC-2): 100 µg/mL (≈ 132 µM) | MIC (ESCHERICHIA COLI H560): 50 µg/mL (≈ 65.9 µM) | MIC (ESCHERICHIA COLI KNK 437): > 100 µg/mL | MIC [12]: > 100 µg/mL | MIC [13]: > 100 µg/mL | MIC [14]: > 100 µg/mL | MIC [15]: > 100 µg/mL | MIC [16]: > 100 µg/mL | MIC [17]: 100 µg/mL (≈ 132 µM) | MIC [18]: 1.56 µg/mL (≈ 2.06 µM) | MIC (PSEUDOMONAS CEPACIA 296I): > 100 µg/mL | MIC [19]: > 100 µg/mL | MIC [20]: > 100 µg/mL | MIC (CANDIDA ALBICANS CCH 442): > 100 µg/mL | MIC [21]: 0.78 µg/mL (≈ 1.03 µM)
